Measured values taken from patent US20240228474A1, “ANTIBACTERIAL COMPOUND” (DISCUVA LIMITED, priority 2021, published 2024).
≈ marks a conversion by molar mass, not a printed value.

Assays:
[1] = test system: Escherichia coli (NCTC 13441); experiment: MIC by broth microdilution (CLSI); format: cell-based; conditions: NCTC13441, planktonic bacteria, 20-24 hour incubation
Procedure: (§1) Minimum Inhibitory Concentrations (MICs) versus Escherichia coli (NCTC 13441) and Klebsiella pneumoniae (NCTC 13438) (planktonic bacteria) were determined by the broth microdilution procedure in line with the guidelines of the Clinical and Laboratory Standards Institute (Clinical and Laboratory Standards Institute. Methods for Dilution Antimicrobial Susceptibility Tests for Bacteria That Grow Aerobically, Approved Standard-Eleventh Edition, CLSI document M07, 11 Jan. 2018). The broth dilution method involved a two-fold serial dilution of compounds in 96-well microtitre plates, giving a final concentration range of 0.39-200 μM and a maximum final concentration of 2% DMSO. The bacterial strains tested were Escherichia coli (NCTC 13441) and Klebsiella pneumoniae (NCTC 13438). Strains were grown in cation-adjusted Müller-Hinton broth or on Luria Bertani agar at 37° C. in an ambient atmosphere. The MIC (μM) was determined as the lowest concentration of compound that inhibits growth following a 20-24 hour incubation period.

[2] = test system: Klebsiella pneumoniae (NCTC 13438); experiment: MIC by broth microdilution (CLSI); format: cell-based; conditions: NCTC13438, planktonic bacteria, 20-24 hour incubation
Procedure: as §1

[3] = Volume of distribution (Vss) from mouse plasma profiles; format: in vivo; conditions: mice, 5 mg/kg IV bolus, 2 compartment model
Procedure: The volume of distribution (Vss) of compound (I) and comparative compounds (II) and (III) was determined from analysis of plasma concentration time profiles obtained from rodent species (mice), following 5 mg/kg IV bolus administration respectively. The volume of distribution was obtained by analysing the rodent plasma profiles for compound (I) and comparative compounds (II) and (III) using a 2 compartment IV bolus model in PK Solver (Excel). The volume of distribution data for compound (I) and comparative compound (II) was collected in separate experiments carried out on different days, and compared in Table 6.

[4] = test system: E. coli BAA-2469 (NDM-1 positive); experiment: Murine bacteraemia / bloodstream infection proof-of-concept study, IV bolus; format: in vivo
Procedure: Compound (I) and comparative compound (III) were evaluated in proof-of-concept studies in murine models for the treatment of a respiratory infection with Gram-negative bacteria of the order Enterobacterales, a bacteraemia or bloodstream infection with Gram-negative bacteria of the order Enterobacterales, and a urinary tract infection with Gram-negative bacteria of the order Enterobacterales. Each dot, triangle or square indicator represents a single mouse. LOD refers to the limit of detection of the bacteria. […] Each of the proof-of-concept studies was carried out separately. By vehicle is meant pharmaceutically acceptable carrier or excipient.
For the proof-of-concept study for the treatment of a bacteraemia or bloodstream infection with Gram-negative bacteria of the order Enterobacterales, CD-1 mice were infected with human urine isolate E. coli BAA-2469 (NDM-1 positive). One hour after infection (‘pre-treatment’ in FIG. 3), a vehicle (20% hydroxypropyl β cyclodextrin) containing no compound (I) or comparative compound (III), or a vehicle (20% hydroxypropyl β cyclodextrin) containing compound (I) or comparative compound (III), was administered by as a single dose IV bolus at 20 mg/kg.

[5] = test system: Klebsiella pneumoniae ATCC 43816; experiment: Further murine respiratory infection study, intravenous infusion; format: in vivo; conditions: 26 h
Procedure: Compound (I) was evaluated in further proof-of-concept studies in murine models for the treatment of a respiratory infection with Gram-negative bacteria of the order Enterobacterales, and a urinary tract infection with Gram-negative bacteria of the order Enterobacterales. Each dot, triangle or square indicator represents a single mouse. LOD refers to the limit of detection of the bacteria. […] Each of the proof-of-concept studies was carried out separately. By vehicle is meant pharmaceutically acceptable excipient or carrier. For the further proof-of-concept study for the treatment of a respiratory infection caused or exacerbated by Gram-negative bacteria of the order Enterobacterales, male CD-1 mice were infected with Klebsiella pneumoniae ATCC 43816. Two hours after infection (‘pre-treatment’ in FIG. 5), mice were either treated with a vehicle control (phosphate buffer) containing no compound (I), or a vehicle (phosphate buffer) containing compound (I), administered by intravenous infusion for 1 hour (QD) with a dose of 20 mg/kg of compound (I). For the mice that received the vehicle control containing no compound (I), and some mice who received the vehicle containing compound (I), an additional 1-hour continuous intravenous infusion was administered 3 hours after the time at which the first administration begun (BID, 3 hrs apart).

[6] = test system: E. coli UT189; experiment: Further murine urinary tract infection study, intravenous infusion; format: in vivo; conditions: 96 h
Procedure: Compound (I) was evaluated in further proof-of-concept studies in murine models for the treatment of a respiratory infection with Gram-negative bacteria of the order Enterobacterales, and a urinary tract infection with Gram-negative bacteria of the order Enterobacterales. Each dot, triangle or square indicator represents a single mouse. LOD refers to the limit of detection of the bacteria. […] Each of the proof-of-concept studies was carried out separately. By vehicle is meant pharmaceutically acceptable excipient or carrier. For the further proof-of-concept study for the treatment of a urinary tract infection with Enterobacterales, female C3H/HeN mice were infected with E. coli UT189. Twenty-four hours after infection (‘pre-treatment’ in FIGS. 6a-c), mice were either treated with a vehicle control (20% hydroxypropyl β cyclodextrin) containing no compound (I), or a vehicle (20% hydroxypropyl β cyclodextrin) containing compound (I), administered by intravenous infusion for 1 hour (QD) with a dose of 20 mg/kg of compound (I). For some mice who received vehicle containing compound (I), an additional 1-hour continuous intravenous infusion was administered 5 hours after the time at which the first administration begun (BID, 5 hrs apart). The once or twice daily administration was continued for three days. For QD, administration took place between 24 to 25 hours, 48 to 49 hours, and 72 to 73 hours after infection, and for BID, administration took place between 24 to 25 hours, 29 to 30 hours, 48 to 49 hours, 53 to 54 hours, 72 to 73 hours and 77 to 78 hours after infection.

[7] = 1 h IV infusion 20 mg/kg twice (BID, 3 hrs apart)
[8] = 1 h IV infusion 20 mg/kg BID (5 hrs apart) for three days
[9] = 1 h IV infusion 20 mg/kg QD for three days

Cc1cnccc1-c1[nH]c(N)nc1-c1ccc2c(c1)N(C(=O)C(C)(C)N)CCO2 [Compound (I), 2-amino-1-(6-(2-amino-5-(3-methylpyridin-4-yl)-1H-imidazol-4-yl)-2,3-dihydro-4H-benzo[b][1,4]oxazin-4-yl)-2-methylpropan-1-one]
MIC [1]: ≤ 0.39 µM | MIC [2]: 1.56 to 3.13 µM (≈ 0.612 to 1.23 µg/mL) | Vd [3]: 19.7 L/kg | reduction of bacterial burden in the blood compared to vehicle ([4]; CD-1 mice, single dose IV bolus 20 mg/kg, 9 h from initial infection): 7.43 log | more efficacious than comparative compound (III), blood ([4]; difference in log reduction, 9 h): 2.5 log | bacterial burden (CFU) in the blood at end of study ([4]; single dose IV bolus 20 mg/kg, 9 h from initial infection): below the limit of detection (LOD) | reduction of bacterial burden in the lung compared to pre-treatment (stasis levels) ([5]; 1 h IV infusion 20 mg/kg once (QD)): 0.95 log | reduction of bacterial burden in the lung compared to pre-treatment (stasis levels) [5, 7]: 1.80 log | reduction of bacterial burden in the lung compared to vehicle [5, 7]: 5.20 log | reduction of bacterial burden in the lung compared to vehicle ([5]; male CD-1 mice, 1 h IV infusion 20 mg/kg once (QD)): 4.35 log | reduction of bacterial burden in the bladder compared to vehicle [6, 8]: 5.84 log | reduction of bacterial burden in the kidney compared to vehicle [6, 8]: 4.3 log | reduction of bacterial burden in the urine compared to vehicle [6, 8]: 5.87 log | reduction of bacterial burden in the bladder compared to vehicle [6, 9]: 5.01 log | reduction of bacterial burden in the kidney compared to vehicle [6, 9]: 3.17 log | bacterial burden in the bladder at end of study ([6]; BID (5 hrs apart)): below the limit of detection (LOD) | bacterial burden in the kidney at end of study ([6]; BID (5 hrs apart)): below the limit of detection (LOD) | bacterial burden in the urine at end of study ([6]; BID (5 hrs apart)): below the limit of detection (LOD) | bacterial burden in the bladder at end of study ([6]; QD): below the limit of detection (LOD) | bacterial burden in the urine at end of study ([6]; QD): below the limit of detection (LOD) | reduction of bacterial burden in the urine compared to vehicle ([6]; female C3H/HeN mice, 1 h IV infusion 20 mg/kg QD for three days): 4.86 log
